# In PubChem BioAssay AID192 (DTP/NCI, 2004):
# “And” between values parts separate entries of the source, which are not always exact repeats. Equal values may be shown once. Toxic doses and inconclusive results are not listed.
# Tested on: BDF1 mice, B16 melanoma ip, median survival T/C
# Experiment: NCI In Vivo Anticancer Drug Screen. Data for tumor model B16 Melanoma (intraperitoneal) in B6D2F1 (BDF1) mice
# Conditions: endpoint: median survival time, higher = longer survival
# How it was run: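 Survival or tumor size is measured after treatment of tumor-bearing mice and normalised to the vehicle-treated control group.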
# [1] = dose: 25.0 mg/kg/injection, schedule: Q01DX009 (ip), vehicle: saline with Tween-80
# [2] = dose: 50.0 mg/kg/injection, schedule: Q01DX009 (ip), vehicle: saline with Tween-80
# [3] = dose: 100.0 mg/kg/injection, schedule: Q01DX009 (ip), vehicle: saline with Tween-80
# [4] = dose: 100.0 mg/kg/injection, schedule: Q01DX009 (ip), vehicle: Klucel (hydroxypropylcellulose) (HPC)
# [5] = dose: 200.0 mg/kg/injection, schedule: Q01DX009 (ip), vehicle: Klucel (hydroxypropylcellulose) (HPC)
# [6] = dose: 50.0 mg/kg/injection, schedule: Q01DX009 (ip), vehicle: saline
# [7] = dose: 100.0 mg/kg/injection, schedule: Q01DX009 (ip), vehicle: saline
# [8] = dose: 12.5 mg/kg/injection, schedule: Q01DX009 (ip), vehicle: Klucel (hydroxypropylcellulose) (HPC)
# [9] = dose: 25.0 mg/kg/injection, schedule: Q01DX009 (ip), vehicle: Klucel (hydroxypropylcellulose) (HPC)
# [10] = dose: 50.0 mg/kg/injection, schedule: Q01DX009 (ip), vehicle: Klucel (hydroxypropylcellulose) (HPC)
# [11] = dose: 25.0 mg/kg/injection, schedule: Q01DX009 (ip), vehicle: saline
# [12] = dose: 12.5 mg/kg/injection, schedule: Q01DX009 (ip), vehicle: saline
# [13] = dose: 400.0 mg/kg/injection, schedule: Q01DX009 (ip), vehicle: Klucel (hydroxypropylcellulose) (HPC)
compound,measurement,setting,value
O=[N+]([O-])c1cccnc1Oc1cccc(C(F)(F)F)c1,T/C,"dose: 135.0 mg/kg/injection, schedule: Q04DX003 (ip), vehicle: Klucel (hydroxypropylcellulose) (HPC)",110 % of control
same,T/C,"dose: 195.0 mg/kg/injection, schedule: Q04DX003 (ip), vehicle: Klucel (hydroxypropylcellulose) (HPC)",115 % of control
same,T/C,"dose: 450.0 mg/kg/injection, schedule: Q04DX003 (ip), vehicle: Klucel (hydroxypropylcellulose) (HPC)",100 % of control
O=C(O)c1ccc(C(Cl)(Cl)Cl)cc1,T/C,[1],105 % of control
same,T/C,[2],103 % of control
same,T/C,[3],98 % of control
Cc1ccc(Cl)cc1NC(=O)c1ccccc1Cl,T/C,[4],108 % of control
same,T/C,[5],98 % of control
C(COCCOCC1CO1)OCCOCC1CO1 (stereo not given),T/C,"dose: 12.5 mg/kg/injection, schedule: Q01DX009 (ip), vehicle: saline with Tween-80",101 % of control
same,T/C,[1],105 % of control
same,T/C,[2],103 % of control
same,T/C,[6],107 % of control
same,T/C,[3],109 % of control
same,T/C,[7],108 % of control and 110 % of control
same,T/C,"dose: 200.0 mg/kg/injection, schedule: Q01DX009 (ip), vehicle: saline with Tween-80",99 % of control
same,T/C,"dose: 200.0 mg/kg/injection, schedule: Q01DX009 (ip), vehicle: saline",86 % of control
O=C1CNC(c2ccccc2)c2cc(Cl)ccc2N1 (stereo not given),T/C,[8],107 % of control
same,T/C,[9],97 % of control
same,T/C,[10],107 % of control
same,T/C,[4],94 % of control
same,T/C,[5],102 % of control
O=C(NC(Cc1ccccc1)C(=O)O)OCC1c2ccccc2-c2ccccc21 (stereo not given),T/C,[10],106 % of control
same,T/C,[4],114 % of control
CCCNCCN,T/C,[11],109 % of control
same,T/C,[6],116 % of control
same,T/C,[7],96 % of control
C[C@]12CCC(=O)C=C1CC[C@@H]1[C@@H]2C(=O)C[C@@]2(C)[C@H]1CC[C@]2(O)C(=O)CO,T/C,"dose: 40.0 mg/kg/injection, schedule: Q02DX009 (ip), vehicle: Klucel (hydroxypropylcellulose) (HPC)",100 % of control
same,T/C,"dose: 80.0 mg/kg/injection, schedule: Q02DX009 (ip), vehicle: Klucel (hydroxypropylcellulose) (HPC)",112 % of control
same,T/C,"dose: 160.0 mg/kg/injection, schedule: Q02DX009 (ip), vehicle: Klucel (hydroxypropylcellulose) (HPC)",97 % of control
same,T/C,"dose: 640.0 mg/kg/injection, schedule: Q02DX009 (ip), vehicle: Klucel (hydroxypropylcellulose) (HPC)",97 % of control
NC(CO)C(O)c1ccc([N+](=O)[O-])cc1 (stereo not given),T/C,"dose: 100.0 mg/kg/injection, schedule: Q04DX003 (ip), vehicle: Klucel (hydroxypropylcellulose) (HPC)",97 % of control
same,T/C,"dose: 200.0 mg/kg/injection, schedule: Q04DX003 (ip), vehicle: Klucel (hydroxypropylcellulose) (HPC)",95 % of control
same,T/C,"dose: 400.0 mg/kg/injection, schedule: Q04DX003 (ip), vehicle: Klucel (hydroxypropylcellulose) (HPC)",86 % of control
C/C=C1/CC(C)C(C)(O)C(=O)OCC2CCN3CCC(OC1=O)C23 (stereo not given),T/C,[12],109 % of control
same,T/C,[11],109 % of control
same,T/C,[6],102 % of control
same,T/C,[7],107 % of control
Cn1ncc2c(N)ncnc21,T/C,"dose: 1.25 mg/kg/injection, schedule: Q01DX009 (ip), vehicle: Klucel (hydroxypropylcellulose) (HPC)",102 % of control
same,T/C,"dose: 2.5 mg/kg/injection, schedule: Q01DX009 (ip), vehicle: Klucel (hydroxypropylcellulose) (HPC)",111 % of control
same,T/C,"dose: 5.0 mg/kg/injection, schedule: Q01DX009 (ip), vehicle: Klucel (hydroxypropylcellulose) (HPC)",105 % of control
same,T/C,"dose: 10.0 mg/kg/injection, schedule: Q01DX009 (ip), vehicle: Klucel (hydroxypropylcellulose) (HPC)",119 % of control
CS(=O)(=O)[O-].CS(=O)(=O)[O-].NC1CCCCC1N.[Pt+4] (stereo not given),T/C,"dose: 0.62 mg/kg/injection, schedule: Q01DX009 (ip), vehicle: other",124 % of control
same,T/C,"dose: 1.25 mg/kg/injection, schedule: Q01DX009 (ip), vehicle: other",159 % of control
CCCc1c2cc(OC)c(OC)cc2cc2c3cc(OC)c(OC)cc3cc[n+]12 (tested in a mixture with another compound),T/C,"dose: 6.25 mg/kg/injection, schedule: Q01DX009 (ip), vehicle: Klucel (hydroxypropylcellulose) (HPC)",100 % of control
same,T/C,[8],96 % of control
same,T/C,[9],100 % of control
NC(N)=NC1CCCC1,T/C,[12],97 % of control
same,T/C,[11],114 % of control
same,T/C,[6],98 % of control
C[C@H](CN1CC(=O)NC(=O)C1)N1CC(=O)NC(=O)C1,T/C,"dose: 8.0 mg/kg/injection, schedule: Q01DX009 (ip), vehicle: saline",108 % of control
same,T/C,"dose: 16.0 mg/kg/injection, schedule: Q01DX009 (ip), vehicle: saline",120 % of control
same,T/C,"dose: 16.0 mg/kg/injection, schedule: Q01DX009 (ip), vehicle: water",107 % of control
same,T/C,"dose: 25.0 mg/kg/injection, schedule: Q04DX003 (ip), vehicle: water",111 % of control
same,T/C,"dose: 32.0 mg/kg/injection, schedule: Q01DX009 (ip), vehicle: water",111 % of control
same,T/C,"dose: 50.0 mg/kg/injection, schedule: Q04DX003 (ip), vehicle: water",94 % of control
same,T/C,"dose: 100.0 mg/kg/injection, schedule: Q04DX003 (ip), vehicle: water",106 % of control
same,T/C,"dose: 128.0 mg/kg/injection, schedule: Q01DX009 (ip), vehicle: water",101 % of control
same,T/C,"dose: 200.0 mg/kg/injection, schedule: Q04DX003 (ip), vehicle: water",107 % of control
Cc1cc(NCCCCCCNc2cc(C)nc3ccc(N)cc23)c2cc(N)ccc2n1,T/C,"dose: 2.25 mg/kg/injection, schedule: Q01DX009 (ip), vehicle: saline with Tween-80",104 % of control
same,T/C,"dose: 4.5 mg/kg/injection, schedule: Q01DX009 (ip), vehicle: saline with Tween-80",102 % of control
same,T/C,"dose: 9.0 mg/kg/injection, schedule: Q01DX009 (ip), vehicle: saline with Tween-80",104 % of control
same,T/C,"dose: 18.0 mg/kg/injection, schedule: Q01DX009 (ip), vehicle: saline with Tween-80",122 % of control
O=C(Nc1ccccc1F)c1ccc(Cl)c(Cl)c1,T/C,[10],100 % of control
same,T/C,[4],87 % of control
same,T/C,[5],90 % of control
same,T/C,[13],94 % of control
Cc1cc(C)c(NC(=O)c2cccc(C(=O)Nc3c(C)cc(C)cc3C)c2)c(C)c1,T/C,[4],93 % of control
same,T/C,[5],86 % of control
same,T/C,[13],90 % of control
Oc1ccc(SCc2ccc(NCc3ccccc3)cc2)cc1,T/C,"dose: 12.5 mg/kg/injection, schedule: Q01DX009 (ip), vehicle: other",92 % of control
same,T/C,"dose: 12.5 mg/kg/injection, schedule: Q01DX009 (ip), vehicle: saline + alcohol",105 % of control
same,T/C,"dose: 25.0 mg/kg/injection, schedule: Q01DX009 (ip), vehicle: other",97 % of control
same,T/C,"dose: 25.0 mg/kg/injection, schedule: Q01DX009 (ip), vehicle: saline + alcohol",103 % of control
same,T/C,"dose: 50.0 mg/kg/injection, schedule: Q01DX009 (ip), vehicle: other",102 % of control
same,T/C,"dose: 50.0 mg/kg/injection, schedule: Q01DX009 (ip), vehicle: saline + alcohol",99 % of control
same,T/C,"dose: 100.0 mg/kg/injection, schedule: Q01DX009 (ip), vehicle: other",104 % of control
same,T/C,"dose: 100.0 mg/kg/injection, schedule: Q01DX009 (ip), vehicle: saline + alcohol",107 % of control
same,T/C,"dose: 200.0 mg/kg/injection, schedule: Q01DX009 (ip), vehicle: other",102 % of control
same,T/C,"dose: 200.0 mg/kg/injection, schedule: Q01DX009 (ip), vehicle: saline + alcohol",103 % of control
same,T/C,"dose: 400.0 mg/kg/injection, schedule: Q01DX009 (ip), vehicle: other",96 % of control
same,T/C,"dose: 400.0 mg/kg/injection, schedule: Q01DX009 (ip), vehicle: saline + alcohol",99 % of control
Cc1cc(C)[nH]c(=O)n1,T/C,[11],115 % of control
same,T/C,[6],101 % of control
same,T/C,[7],102 % of control
C[n+]1ccccc1/C=N/O,T/C,"dose: 18.75 mg/kg/injection, schedule: Q01DX009 (ip), vehicle: saline",100 % of control
same,T/C,"dose: 37.5 mg/kg/injection, schedule: Q01DX009 (ip), vehicle: saline",107 % of control
same,T/C,"dose: 75.0 mg/kg/injection, schedule: Q01DX009 (ip), vehicle: saline",88 % of control and 106 % of control
O=NN1CCNC1=O,T/C,"dose: 1.5 mg/kg/injection, schedule: Q01DX009 (ip), vehicle: Klucel (hydroxypropylcellulose) (HPC)",98 % of control
same,T/C,"dose: 3.0 mg/kg/injection, schedule: Q01DX009 (ip), vehicle: Klucel (hydroxypropylcellulose) (HPC)",110 % of control
same,T/C,"dose: 6.0 mg/kg/injection, schedule: Q01DX009 (ip), vehicle: Klucel (hydroxypropylcellulose) (HPC)",101 % of control
COc1ccc(OC)c(C2N(Cc3ccccc3N(C)C)CCCN2Cc2ccccc2N(C)C)c1,T/C,[1],102 % of control
same,T/C,[2],93 % of control
same,T/C,[3],90 % of control
CCCCCCCCCCCCNC(=O)Nc1cc(C)ccc1C,T/C,[4],92 % of control
same,T/C,[5],96 % of control
